# In US20220306659A1, “COMPOUND INHIBITING AND INDUCING DEGRADATION OF EGFR AND ALK” (BEIJING TIDE PHARMACEUTICAL CO., LTD., priority 2019, published 2022):
# Legend:
# EGFR^L858R/T790M/C797S = EGFR^L858R/T790M/C797S (Homo sapiens, UniProt P00533, C797S/L858R/T790M); experiment: EGFR inhibitory activity assay (TK-substrate-biotin/ATP, 665/615 ratio); format: biochemical; details: kinase inhibition
# Experimental: (§1) EGFR Inhibitory Activity Assay
# (1) A compound stock solution was prepared and diluted 3× to obtain a compound dilution; 10 nL of the compound dilution was transferred to a 384-well plate (784075, Greiner) by Echo 550;
# (§2) (2) The plate was sealed, and centrifuged at 1,000 g for 1 min;
# (§3) (4) 5 μl of the 2×EGFR protein working solution was added to the 384-well plate from step (2), centrifuged at 1,000 g for 30 s, and allowed to stand at room temperature (mixed thoroughly) for 10 min;
# (§4) (6) 5 µL of the TK-substrate-biotin and ATP (the mixture prepared in step (5)) was added to the 384-well plate from step (4) to initiate the reaction;
# (§5) (7) The mixture was centrifuged at 1,000 g for 30 s; the plate was sealed, and allowed to stand (and reacted) at room temperature for 40 min;
# (8) 4×Sa-XL 665 and TK-antibody-Cryptate were prepared with detection buffer;
# (9) 5 µL of the Sa-XL 665 and 5 µL of the TK-antibody-Cryptate were added successively to the 384-well plate from step (7);
# (§6) (10) The mixture was centrifuged at 1,000 g for 30 s, and allowed to stand (reacted) at room temperature for 1 h;
# (11) The fluorescence values were read at 615 nm and 665 nm by enzyme labeling instrument (PerkinElmer, 74785).
# The ratio (665/615) of each well was calculated.
# (§7) Formula of inhibition rate (%): […]
# Ratiocmpd: Ratio (665/615) value of assay compound.
# Ratiopositive: Average ratio (665/615) value of positive control.
# Ratiovehicle: Average ratio (665/615) value of negative control.
# (§8) The nonlinear regression curve (dose response-variable slope) between the value of inhibition rate (%) and the logarithm of compound concentration was fitted with graphpad prism 8.0, the effect dose curve of compound was drawn, and the IC50 value was calculated.
# EGFR^Del19/T790M/C797S = EGFR^Del19/T790M/C797S (Homo sapiens, UniProt P00533, C797S/DEL746-750/T790M); experiment: as above; format: biochemical; details: kinase inhibition
# Experimental: as §1, §2, §3, §4, §5, §6, §7, §8
# Ba/F3(EML4-ALK) cells = molecular target: T1, Ba/F3(EML4-ALK) cells (Homo sapiens, UniProt Q9UM73); experiment: Assay of activity on Ba/F3(EML4-ALK) cells (CTG, 72 h); format: cell-based; details: read-out: IC50 (nM) Ba/F3(EML4-ALK)
# T1 construct: fused on or other part: Q9HC35 (Echinoderm microtubule-associated protein-like 4)
# In short: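 Ba/F3(EML4-ALK) cells, 700 per well, were exposed to 3-fold serial compound dilutions for 72 h at 37° C, 5% CO2, and viability was then read by CTG luminescence.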
# ALK^G1202R = ALK^G1202R (Homo sapiens, UniProt Q9UM73, G1202R); experiment: Assay of activity on ALK kinase; format: biochemical; details: kinase inhibition
# Experimental: (§9) Assay of activity on ALK kinase
# (§10) (1) A compound stock solution was prepared;
# (§11) (2) The compound stock solution was diluted 3× to obtain a compound dilution;
# (§12) (5) 5 μl of the 2× kinase working solution was added to the reaction plate, centrifuged at 1,000 rpm for 1 min, and incubated at 25° C. for 15 min;
# (§13) (7) 5 μl of the TK-substrate-biotin and ATP (the mixture prepared in step (6)) was added to initiate the reaction;
# (§14) (8) The mixture was centrifuged at 1,000 g for 30 s; the plate was sealed, and incubated at 25° C. for 60 min;
# (§15) (11) The mixture was centrifuged at 1,000 g for 1 min, and incubated at 25° C. for 60 min;
# as §7, §8
# (§16) Y=Bottom+(Top−Bottom)/(1+10^((LogIC50−X)*Hill Slope))
# (§17) X-axis: logarithm of compound concentration; Y axis: inhibition rate ([…])
# ALK = ALK (Homo sapiens, UniProt Q9UM73); experiment: Assay of activity on ALK kinase; format: biochemical; details: kinase inhibition
# Experimental: as §9, §10, §11, §12, §13, §14, §15, §7, §8, §16, §17
# [1] = molecular target: Ba/F3(EGFR^L858R/T790M/C797S) cells (Homo sapiens, UniProt P00533, T790M/C797S/L858R, cells depend on it); experiment: Assay of activity on Ba/F3 cells (CTG, 72 h); format: cell-based; details: read-out: IC50 (nM) Ba/F3 (EGFR^L858R/T790M/C797S)
# In short: (§18)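 Ba/F3 cells dependent on each EGFR triple mutant were exposed to 3-fold compound dilutions for 72 h at 37° C, 5% CO2, with CellTiter-Glo luminescence as the read-out.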
# [2] = molecular target: Ba/F3(EGFR^Del19/T790M/C797S) cells (Homo sapiens, UniProt P00533, DEL746-750/T790M/C797S, cells depend on it); experiment: Assay of activity on Ba/F3 cells (CTG, 72 h); format: cell-based; details: read-out: IC50 (nM) Ba/F3 (EGFR^Del19/T790M/C797S)
# In short: as §18
# Chain of EGFR^Del19/T790M/C797S (P00533 with tags, fused parts or gaps DEL746-750/T790M/C797S): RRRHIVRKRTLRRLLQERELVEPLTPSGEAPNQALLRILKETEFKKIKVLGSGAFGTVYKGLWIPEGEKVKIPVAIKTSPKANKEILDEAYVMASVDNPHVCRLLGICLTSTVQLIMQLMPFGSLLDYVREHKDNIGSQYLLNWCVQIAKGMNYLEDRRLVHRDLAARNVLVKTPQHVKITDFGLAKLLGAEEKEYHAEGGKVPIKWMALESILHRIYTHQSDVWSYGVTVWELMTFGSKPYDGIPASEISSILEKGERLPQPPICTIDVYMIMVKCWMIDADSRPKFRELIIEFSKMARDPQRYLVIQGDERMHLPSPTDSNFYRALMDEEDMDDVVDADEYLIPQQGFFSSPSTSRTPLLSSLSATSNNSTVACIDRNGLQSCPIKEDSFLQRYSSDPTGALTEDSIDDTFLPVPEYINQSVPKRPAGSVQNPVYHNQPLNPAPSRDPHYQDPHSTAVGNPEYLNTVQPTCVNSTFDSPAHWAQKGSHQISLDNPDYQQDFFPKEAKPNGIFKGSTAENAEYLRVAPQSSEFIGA
# T1 sequence (Q9UM73 whole entry, change not shown, the tested form may be a part): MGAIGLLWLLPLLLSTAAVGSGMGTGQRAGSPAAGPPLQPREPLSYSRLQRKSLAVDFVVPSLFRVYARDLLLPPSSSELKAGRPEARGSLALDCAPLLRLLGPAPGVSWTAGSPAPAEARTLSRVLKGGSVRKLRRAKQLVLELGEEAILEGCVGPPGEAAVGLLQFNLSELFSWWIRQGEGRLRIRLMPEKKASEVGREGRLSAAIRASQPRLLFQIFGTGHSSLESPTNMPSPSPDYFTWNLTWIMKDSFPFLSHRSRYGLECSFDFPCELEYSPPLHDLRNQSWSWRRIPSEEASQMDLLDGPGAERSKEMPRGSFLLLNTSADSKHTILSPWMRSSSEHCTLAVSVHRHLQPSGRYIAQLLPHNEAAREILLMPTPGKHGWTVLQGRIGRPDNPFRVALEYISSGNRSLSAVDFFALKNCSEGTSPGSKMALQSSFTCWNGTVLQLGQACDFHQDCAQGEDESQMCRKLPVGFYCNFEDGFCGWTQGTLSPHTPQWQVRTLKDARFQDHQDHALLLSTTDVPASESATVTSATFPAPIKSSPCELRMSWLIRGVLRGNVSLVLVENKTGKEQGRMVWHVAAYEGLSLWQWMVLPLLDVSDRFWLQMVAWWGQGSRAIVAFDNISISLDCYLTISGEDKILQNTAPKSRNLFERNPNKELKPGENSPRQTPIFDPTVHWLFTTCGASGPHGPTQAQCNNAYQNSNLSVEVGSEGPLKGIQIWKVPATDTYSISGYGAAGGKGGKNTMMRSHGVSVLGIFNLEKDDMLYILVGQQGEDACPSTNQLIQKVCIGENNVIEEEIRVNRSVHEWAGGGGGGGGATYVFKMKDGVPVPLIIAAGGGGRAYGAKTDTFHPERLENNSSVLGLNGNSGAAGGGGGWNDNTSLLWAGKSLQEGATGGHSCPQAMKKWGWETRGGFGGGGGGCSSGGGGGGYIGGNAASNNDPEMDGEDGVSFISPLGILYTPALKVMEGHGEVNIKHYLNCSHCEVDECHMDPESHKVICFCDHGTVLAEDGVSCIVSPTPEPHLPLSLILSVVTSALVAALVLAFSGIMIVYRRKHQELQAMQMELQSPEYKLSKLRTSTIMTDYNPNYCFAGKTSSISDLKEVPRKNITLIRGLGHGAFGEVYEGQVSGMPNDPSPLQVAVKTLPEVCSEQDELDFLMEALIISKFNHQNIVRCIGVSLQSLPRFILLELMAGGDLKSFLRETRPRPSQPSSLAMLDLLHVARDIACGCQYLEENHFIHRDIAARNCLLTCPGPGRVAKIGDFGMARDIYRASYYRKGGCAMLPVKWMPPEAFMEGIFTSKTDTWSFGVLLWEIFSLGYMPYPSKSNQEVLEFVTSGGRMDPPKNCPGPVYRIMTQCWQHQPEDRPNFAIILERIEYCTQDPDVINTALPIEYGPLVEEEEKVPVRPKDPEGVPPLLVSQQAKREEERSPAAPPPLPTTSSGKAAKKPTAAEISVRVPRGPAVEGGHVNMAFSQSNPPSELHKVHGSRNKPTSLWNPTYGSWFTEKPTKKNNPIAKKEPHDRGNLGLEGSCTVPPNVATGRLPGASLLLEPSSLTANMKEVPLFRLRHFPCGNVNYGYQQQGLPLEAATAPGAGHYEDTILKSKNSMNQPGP
# Chain of ALK (Q9UM73 19-1620): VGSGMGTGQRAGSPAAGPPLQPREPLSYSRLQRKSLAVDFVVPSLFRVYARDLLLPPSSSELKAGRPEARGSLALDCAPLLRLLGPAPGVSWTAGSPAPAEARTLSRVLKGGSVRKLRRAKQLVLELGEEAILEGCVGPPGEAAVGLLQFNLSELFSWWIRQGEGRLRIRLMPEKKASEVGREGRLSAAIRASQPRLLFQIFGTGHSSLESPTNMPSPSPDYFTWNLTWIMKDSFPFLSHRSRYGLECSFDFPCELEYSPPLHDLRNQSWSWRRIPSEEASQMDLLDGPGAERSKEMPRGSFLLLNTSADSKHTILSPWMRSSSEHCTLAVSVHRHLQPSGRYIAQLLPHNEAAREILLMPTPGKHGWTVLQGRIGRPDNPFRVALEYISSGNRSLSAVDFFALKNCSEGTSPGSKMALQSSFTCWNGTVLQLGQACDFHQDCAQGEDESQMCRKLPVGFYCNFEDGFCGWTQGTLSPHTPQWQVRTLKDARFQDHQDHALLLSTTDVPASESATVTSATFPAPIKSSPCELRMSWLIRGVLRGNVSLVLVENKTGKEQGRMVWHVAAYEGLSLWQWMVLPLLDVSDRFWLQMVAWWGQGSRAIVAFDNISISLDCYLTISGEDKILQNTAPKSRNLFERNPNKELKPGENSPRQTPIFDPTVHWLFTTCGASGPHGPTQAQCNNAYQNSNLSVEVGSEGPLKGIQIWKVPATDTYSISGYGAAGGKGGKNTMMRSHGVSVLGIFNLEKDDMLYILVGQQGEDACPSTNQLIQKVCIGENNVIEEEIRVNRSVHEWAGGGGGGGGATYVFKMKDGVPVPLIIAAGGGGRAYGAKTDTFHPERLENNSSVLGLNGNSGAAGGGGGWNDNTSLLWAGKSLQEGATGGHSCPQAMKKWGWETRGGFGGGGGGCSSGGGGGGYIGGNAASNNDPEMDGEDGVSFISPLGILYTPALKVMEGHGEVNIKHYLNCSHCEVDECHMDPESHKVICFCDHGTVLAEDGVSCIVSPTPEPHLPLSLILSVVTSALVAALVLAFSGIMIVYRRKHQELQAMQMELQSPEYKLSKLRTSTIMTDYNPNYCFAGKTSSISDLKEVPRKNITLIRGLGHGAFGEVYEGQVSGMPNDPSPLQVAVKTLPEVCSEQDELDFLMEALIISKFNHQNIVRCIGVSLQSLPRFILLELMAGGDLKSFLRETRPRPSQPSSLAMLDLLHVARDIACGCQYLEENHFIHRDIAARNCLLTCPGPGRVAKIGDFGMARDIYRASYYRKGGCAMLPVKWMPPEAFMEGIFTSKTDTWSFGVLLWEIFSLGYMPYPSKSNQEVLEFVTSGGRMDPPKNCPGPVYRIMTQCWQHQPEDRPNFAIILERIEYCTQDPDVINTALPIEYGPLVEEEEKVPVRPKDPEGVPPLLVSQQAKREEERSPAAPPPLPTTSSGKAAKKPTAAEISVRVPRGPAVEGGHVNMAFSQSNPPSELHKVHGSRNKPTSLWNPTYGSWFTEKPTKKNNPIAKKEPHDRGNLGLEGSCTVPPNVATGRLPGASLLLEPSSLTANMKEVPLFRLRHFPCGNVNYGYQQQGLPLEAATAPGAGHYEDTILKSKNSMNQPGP
# Chain of Ba/F3(EGFR^L858R/T790M/C797S) cells (P00533 whole entry T790M/C797S/L858R): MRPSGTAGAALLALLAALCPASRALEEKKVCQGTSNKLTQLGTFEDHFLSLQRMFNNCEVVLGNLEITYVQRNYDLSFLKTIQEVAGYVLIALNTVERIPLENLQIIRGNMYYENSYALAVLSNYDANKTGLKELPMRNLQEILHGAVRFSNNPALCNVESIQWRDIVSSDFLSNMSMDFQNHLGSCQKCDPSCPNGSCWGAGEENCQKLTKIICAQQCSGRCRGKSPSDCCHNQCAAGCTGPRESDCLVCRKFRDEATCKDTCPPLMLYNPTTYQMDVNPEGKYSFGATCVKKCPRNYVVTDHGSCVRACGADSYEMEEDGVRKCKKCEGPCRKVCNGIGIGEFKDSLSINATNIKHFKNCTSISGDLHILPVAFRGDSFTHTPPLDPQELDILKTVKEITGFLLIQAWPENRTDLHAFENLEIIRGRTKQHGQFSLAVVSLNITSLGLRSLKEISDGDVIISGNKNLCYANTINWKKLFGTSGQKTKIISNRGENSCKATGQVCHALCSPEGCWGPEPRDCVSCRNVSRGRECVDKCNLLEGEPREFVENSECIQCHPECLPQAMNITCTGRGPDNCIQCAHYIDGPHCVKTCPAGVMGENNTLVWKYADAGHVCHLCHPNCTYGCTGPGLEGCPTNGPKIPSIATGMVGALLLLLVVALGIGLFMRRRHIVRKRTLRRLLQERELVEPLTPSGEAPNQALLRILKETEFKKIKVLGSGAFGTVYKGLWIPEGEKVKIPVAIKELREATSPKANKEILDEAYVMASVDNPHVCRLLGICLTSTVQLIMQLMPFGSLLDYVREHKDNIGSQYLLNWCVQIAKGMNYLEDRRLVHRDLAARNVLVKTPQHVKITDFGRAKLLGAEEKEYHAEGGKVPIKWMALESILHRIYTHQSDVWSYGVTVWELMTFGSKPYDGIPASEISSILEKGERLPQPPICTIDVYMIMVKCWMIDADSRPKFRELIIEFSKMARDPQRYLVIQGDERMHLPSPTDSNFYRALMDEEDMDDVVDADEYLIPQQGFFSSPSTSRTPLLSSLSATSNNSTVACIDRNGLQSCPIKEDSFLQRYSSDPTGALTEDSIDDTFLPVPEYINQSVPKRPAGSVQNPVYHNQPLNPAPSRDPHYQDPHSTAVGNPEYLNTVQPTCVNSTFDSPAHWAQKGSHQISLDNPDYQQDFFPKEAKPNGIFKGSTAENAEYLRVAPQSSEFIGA
# Chain of ALK^G1202R (Q9UM73 19-1620 G1202R): as the sequence (Q9UM73 19-1620) above, with G1184R counted along it
IC50 (EGFR^L858R/T790M/C797S) [nM],IC50 (EGFR^Del19/T790M/C797S) [nM],GI50 (Ba/F3(EML4-ALK) cells) [nM],IC50 (ALK^G1202R) [nM],IC50 (ALK) [nM],GI50 [1] [nM],GI50 [2] [nM],SMILES
1 to 100,1 to 100,–,–,–,–,–,"COc1cc(N2CCC(N3CCN(CCOCCOCCOCCNC(=O)COc4cccc5c4C(=O)N(C4CCC(=O)NC4=O)C5=O)CC3)CC2)ccc1Nc1ncc(Cl)c(Nc2ccccc2P(C)(C)=O)n1 (stereo not shown) [Compound A3, N-(2-(2-(2-(2-(4-(1-(4-((5-chloro-4-((2-(dimethylphosphoryl)phenyl)amino)pyrimidin-2-yl)amino)-3-methoxyphenyl)piperidin-4-yl)piperazin-1-yl)ethoxy)ethoxy)ethoxy)ethyl)-2-((2-(2,6-dioxopiperidin-3-yl)-1,3-dioxoisoindolin-4-yl)oxy)acetamide]"
1 to 100,–,1 to 100,101 to 200,1 to 100,1 to 100,–,"COc1cc(N2CCC(N3CCN(CCCCCCCNc4cccc5c4CN(C4CCC(=O)NC4=O)C5=O)CC3)CC2)ccc1Nc1ncc(Cl)c(Nc2ccccc2P(C)(C)=O)n1 (stereo not shown) [Compound A12, 3-(4-((7-(4-(1-(4-((5-chloro-4-((2-(dimethylphosphoryl)phenyl)amino)pyrimidin-2-yl)amino)-3-methoxyphenyl)piperidin-4-yl)piperazin-1-yl)heptyl)amino)-1-oxoisoindolin-2-yl)piperidine-2,6-dione]"
1 to 100,–,–,201 to 300,1 to 100,> 300,–,"COc1cc(N2CCC(N3CCN(CC4(COc5cccc6c5C(=O)N(C5CCC(=O)NC5=O)C6=O)CC4)CC3)CC2)ccc1Nc1ncc(Cl)c(Nc2ccccc2P(C)(C)=O)n1 (stereo not shown) [Compound C106, 4-((1-((4-(1-(4-((5-chloro-4-((2-(dimethylphosphoryl)phenyl)amino)pyrimidin-2-yl)amino)-3-methoxyphenyl)piperidin-4-yl)piperazin-1-yl)methyl)cyclopropyl)methoxy)-2-(2,6-dioxopiperidin-3-yl)isoindoline-1,3-dione]"
1 to 100,–,–,101 to 200,1 to 100,101 to 200,–,"COc1cc(N2CCC(N3CCN(CC(=O)OCC4(COc5cccc6c5C(=O)N(C5CCC(=O)NC5=O)C6=O)CC4)CC3)CC2)ccc1Nc1ncc(Cl)c(Nc2ccccc2P(C)(C)=O)n1 (stereo not shown) [Compound C107, 2-(4-(1-(4-((5-chloro-4-((2-(dimethylphosphoryl)phenyl)amino)pyrimidin-2-yl)amino)-3-methoxyphenyl)piperidin-4-yl)piperazin-1-yl)acetate (1-(((2-(2,6-dioxopiperidin-3-yl)-1,3-dioxoisoindolin-4-yl)oxy)methyl)cyclopropyl)methyl ester]"
1 to 100,1 to 100,1 to 100,–,–,–,1 to 100,"COc1cc(N2CCC3(CCN(CCCCC#Cc4cccc5c4CN(C4CCC(=O)NC4=O)C5=O)CC3)CC2)c(C)cc1Nc1ncc(Br)c(Nc2ccc3nccnc3c2P(C)(C)=O)n1 (stereo not shown) [Compound C187, 3-(4-(6-(9-(4-((5-bromo-4-((5-(dimethylphosphoryl)quinoxalin-6-yl)amino)pyrimidin-2-yl)amino)-5-methoxy-2-methylphenyl)-3,9-diazaspiro[5.5]undecan-3-yl)hex-1-yn-1-yl)-1-oxoisoindolin-2-yl)piperidine-2,6-dione]"
–,–,1 to 100,201 to 300,1 to 100,–,1 to 100,"COc1cc(N2CCC(N3CCN(CCCCCC#Cc4ccc5c(c4)CN(C4CCC(=O)NC4=O)C5=O)CC3)CC2)ccc1Nc1ncc(Cl)c(Nc2ccccc2P(C)(C)=O)n1 (stereo not shown) [Compound C190, 3-(5-(7-(4-(1-(4-((5-chloro-4-((2-(dimethylphosphoryl)phenyl)amino)pyrimidin-2-yl)amino)-3-methoxyphenyl)piperidin-4-yl)piperazin-1-yl)hept-1-yn-1-yl)-1-oxoisoindolin-2-yl)piperidine-2,6-dione]"
–,–,1 to 100,> 300,1 to 100,–,1 to 100,"COc1cc(N2CCC(N3CCN(CCCCCCC#Cc4ccc5c(c4)CN(C4CCC(=O)NC4=O)C5=O)CC3)CC2)ccc1Nc1ncc(Cl)c(Nc2ccccc2P(C)(C)=O)n1 (stereo not shown) [Compound C194, 3-(5-(8-(4-(1-(4-((5-chloro-4-((2-(dimethylphosphoryl)phenyl)amino)pyrimidin-2-yl)amino)-3-methoxyphenyl)piperidin-4-yl)piperazin-1-yl)oct-1-yn-1-yl)-1-oxoisoindolin-2-yl)piperidine-2,6-dione]"

# The remaining lines, values behind:
SMILES,IC50 (EGFR^L858R/T790M/C797S) [nM],IC50 (EGFR^Del19/T790M/C797S) [nM],GI50 (Ba/F3(EML4-ALK) cells) [nM],IC50 (ALK^G1202R) [nM],IC50 (ALK) [nM],GI50 [1] [nM],GI50 [2] [nM]
"COc1cc(N2CCC(N3CCN(CCCCCCCCCNc4cccc5c4CN(C4CCC(=O)NC4=O)C5=O)CC3)CC2)ccc1Nc1ncc(Cl)c(Nc2ccccc2P(C)(C)=O)n1 (stereo not shown) [Compound A13, 3-(4-((9-(4-(1-(4-((5-chloro-4-((2-(dimethylphosphoryl)phenyl)amino)pyrimidin-2-yl)amino)-3-methoxyphenyl)piperidin-4-yl)piperazin-1-yl)nonyl)amino)-1-oxoisoindolin-2-yl)piperidine-2,6-dione]",101 to 200,–,1 to 100,> 300,1 to 100,101 to 200,–
"COc1cc(N2CCC(N3CCN(CC(=O)Nc4cccc5c4CN(C4CCC(=O)NC4=O)C5=O)CC3)CC2)ccc1Nc1ncc(Cl)c(Nc2ccccc2P(C)(C)=O)n1 (stereo not shown) [Compound A17, 2-(4-(1-(4-((5-chloro-4-((2-(dimethylphosphoryl)phenyl)amino)pyrimidin-2-yl)amino)-3-methoxyphenyl)piperidin-4-yl)piperazin-1-yl)-N-(2-(2,6-dioxopiperidin-3-yl)-1-oxoisoindolin-4-yl)acetamide]",1 to 100,1 to 100,–,–,–,–,–
"COc1cc(N2CCC(N3CCN(CC(=O)N4CC(COc5cccc6c5C(=O)N(C5CCC(=O)NC5=O)C6=O)C4)CC3)CC2)ccc1Nc1ncc(Cl)c(Nc2ccccc2P(C)(C)=O)n1 (stereo not shown) [Compound C94, 4-((1-(2-(4-(1-(4-((5-chloro-4-((2-(dimethylphosphoryl)phenyl)amino)pyrimidin-2-yl)amino)-3-methoxyphenyl)piperidin-4-yl)piperazin-1-yl)acetyl)azetidin-3-yl)methoxy)-2-(2,6-dioxopiperidin-3-yl)isoindoline-1,3-dione]",1 to 100,–,–,1 to 100,1 to 100,> 300,–
"COc1cc(N2CCC(N3CCN(CC(=O)N4CCC[C@H]4COc4cccc5c4C(=O)N(C4CCC(=O)NC4=O)C5=O)CC3)CC2)ccc1Nc1ncc(Cl)c(Nc2ccccc2P(C)(C)=O)n1 (stereo partly drawn) [Compound C109, 4-(((S)-1-(2-(4-(1-(4-((5-chloro-4-((2-(dimethylphosphoryl)phenyl)amino)pyrimidin-2-yl)amino)-3-methoxyphenyl)piperidin-4-yl)piperazin-1-yl)acetyl)pyrrolidin-2-yl)methoxy)-2-(2,6-dioxopiperidin-3-yl)isoindoline-1,3-dione]",1 to 100,–,–,1 to 100,1 to 100,> 300,–
"COc1cc(N2CCC(N3CCN(CCOCC#Cc4ccc5c(c4)CN(C4CCC(=O)NC4=O)C5=O)CC3)CC2)ccc1Nc1ncc(Cl)c(Nc2ccccc2P(C)(C)=O)n1 (stereo not shown) [Compound C193, 3-(5-(3-(2-(4-(1-(4-((5-chloro-4-((2-(dimethylphosphoryl)phenyl)amino)pyrimidin-2-yl)amino)-3-methoxyphenyl)piperidin-4-yl)piperazin-1-yl)ethoxy)prop-1-yn-1-yl)-1-oxoisoindolin-2-yl)piperidine-2,6-dione]",–,–,1 to 100,201 to 300,1 to 100,–,1 to 100
